From ChEMBL document CHEMBL1147436, “Synthesis of N,N'-disubstituted 3-aminobenzo[c] and [d]azepin-2-ones as potent and specific farnesyl transferase inhibitors” (Bioorg Med Chem Lett, 2004) come the findings set out here.

Structures are written as SMILES.

Assay [1] is described as follows: Inhibition of geranylgeranyl transferase.
Assay [2] deals with T1, Protein farnesyltransferase (Homo sapiens, UniProt P49354+P49356). Kind of assay: Inhibition of farnesyltransferase. It is filed as protein-complex assay.
The test system of assay [3] is Mus musculus. The experiment in a line: Percent control tumor size in mouse xenograft assay (rat H-ras transformed fibroblasts) at 100 mg/kg peroral dose. It is filed as functional. Conditions: route oral.
A short description of assay [4]: Inhibitory activity against v-H-Ras gene transfected cell line. It is filed as functional.
Assay [5] deals with Mus musculus. Kind of assay: Percent control tumor size in mouse xenograft assay (rat H-ras transformed fibroblasts) at 200 mg/kg peroral dose. It is filed as functional. To be noted: route oral.
Assay [6] deals with T1, Protein farnesyltransferase. Kind of assay: Inhibition of Farnesyltransferase. The assay is classed as protein-complex assay.

On to `Cc1ccccc1CN1Cc2ccccc2CC(NCc2cncn2Cc2ccc(C#N)cc2)C1=O` (centres undefined), for which the half-inhibitory concentration (IC50) in assay [1] came out at 7100 nM; in assay [2], 3 nM; in assay [4], 4 nM. Further, the Control in assay [3] stood at 76%; in assay [5] it was 57%.
For `N#Cc1ccc(Cn2cncc2CNC2C(=O)N(Cc3cccc(Br)c3)CCc3ccccc32)cc1` (centres undefined), the IC50 was 22 nM in assay [2] and 60 nM in assay [4].
Take `N#Cc1ccc(Cn2cncc2CNC2Cc3ccccc3CN(c3ccccc3)C2=O)cc1` (racemic): the IC50 in assay [2] was found to be 26 nM; in assay [4], 36 nM.
Consider `N#Cc1ccc(Cn2cncc2CNC2C(=O)N(c3cc(Cl)cc(Cl)c3)CCc3ccccc32)cc1` (centres undefined), for which the IC50 in assay [4] is 19 nM; in assay [6], 32 nM.
With `N#Cc1ccc(Cn2cncc2CNC2Cc3ccccc3CN(c3cc(F)cc(F)c3)C2=O)cc1` (centres undefined), the figures for the IC50 in assay [2] and in assay [4] were 10 nM and 40 nM, respectively.
As for `N#Cc1ccc(Cn2cncc2CNC2C(=O)N(Cc3cccc(F)c3)CCc3ccccc32)cc1` (centres undefined), the IC50 came out at 78 nM in assay [2] and 67 nM in assay [4].
On the same counts, the results for `N#Cc1ccc(Cn2cncc2CN[C@H]2Cc3ccccc3CN(c3ccccc3)C2=O)cc1` are 19 nM and 16 nM.
As to `N#Cc1ccc(Cn2cncc2CNC2C(=O)N(c3cc(F)cc(F)c3)CCc3ccccc32)cc1` (centres undefined), the IC50 in assay [2] worked out at 62 nM; in assay [4], 86 nM.
For `N#Cc1ccc(Cn2cncc2CNC2Cc3ccccc3CN(c3cccc([N+](=O)[O-])c3)C2=O)cc1` (racemic), the figures for the IC50 in assay [2] and in assay [4] were 13 nM and 46 nM, respectively.
With `N#Cc1ccc(Cn2cncc2CNC2Cc3ccccc3CN(Cc3ccccc3Cl)C2=O)cc1` (centres undefined), the figures for the IC50 in assay [2] and in assay [4] were 10 nM and 6 nM, respectively.
As to `N#Cc1ccc(Cn2cncc2CNC2Cc3ccccc3CN(c3cccc(Br)c3)C2=O)cc1` (racemic), the IC50 in assay [2] amounted to 15 nM; in assay [4], 5 nM.
On the same counts, the results for `N#Cc1ccc(Cn2cncc2CNC2Cc3ccccc3CN(c3cccc(Cl)c3)C2=O)cc1` (racemic) are 4 nM and 16 nM.
In the case of `N#Cc1ccc(Cn2cncc2CNC2Cc3ccccc3CN(Cc3cccc(Cl)c3)C2=O)cc1` (centres undefined), the values for the IC50 in assay [2] and in assay [4] were 6 nM and 4 nM, respectively.
Take `Cc1ccccc1CN1CCc2ccccc2C(NCc2cncn2Cc2ccc(C#N)cc2)C1=O` (centres undefined): the IC50 stood at 54 nM in assay [2] and 96 nM in assay [4].
On the same counts, the results for `N#Cc1ccc(Cn2cncc2CNC2Cc3ccccc3CN(Cc3cc(F)cc(F)c3)C2=O)cc1` (centres undefined) are 8 nM and 16 nM.
With `N#Cc1ccc(Cn2cncc2CNC2C(=O)N(Cc3cc(F)cc(F)c3)CCc3ccccc32)cc1` (centres undefined), the IC50 was determined as 26 nM in assay [2] and 379 nM in assay [4].
As to `N#Cc1ccc(Cn2cncc2CNC2Cc3ccccc3CN(Cc3ccccc3)C2=O)cc1` (centres undefined), the IC50 in assay [2] was determined as 17 nM; in assay [4], 6 nM.
As to `N#Cc1ccc(Cn2cncc2CN[C@H]2Cc3ccccc3CN(c3cccc(Cl)c3)C2=O)cc1`, the values for the IC50 in assay [1], in assay [2] and in assay [4] were 25000 nM, 1 nM and 7 nM, respectively. Moreover, the values for the Control in assay [3] and in assay [5] were 60% and 35%, respectively.
Turning to `N#Cc1ccc(Cn2cncc2CNC2C(=O)N(c3cccc(Cl)c3)CCc3ccccc32)cc1` (racemic), the IC50 worked out at 7700 nM in assay [1], 19 nM in assay [2] and 39 nM in assay [4]. Also, the results for the Control in assay [3] and in assay [5] were 70% and 43%, respectively.
Turning to `N#Cc1ccc(Cn2cncc2CNC2Cc3ccccc3CN(CC3CCCCC3)C2=O)cc1` (centres undefined), the figures for the IC50 in assay [2] and in assay [4] were 47 nM and 26 nM, respectively.
In the case of `N#Cc1ccc(Cn2cncc2CNC2C(=O)N(Cc3cccc(Cl)c3)CCc3ccccc32)cc1` (centres undefined), the IC50 in assay [2] was found to be 23 nM; in assay [4], 183 nM.
Regarding `N#Cc1ccc(Cn2cncc2CNC2Cc3ccccc3CN(c3cccc(F)c3)C2=O)cc1` (racemic), the IC50 in assay [2] stood at 9 nM; in assay [4], 39 nM.
With `COc1cccc(N2Cc3ccccc3CC(NCc3cncn3Cc3ccc(C#N)cc3)C2=O)c1` (racemic), the IC50 in assay [2] is 6 nM; in assay [4], 15 nM.
On the same counts, the results for `N#Cc1ccc(Cn2cncc2CNC2Cc3ccccc3CN(Cc3ccc(F)cc3F)C2=O)cc1` (centres undefined) are 55 nM and 115 nM.
Regarding `N#Cc1ccc(Cn2cncc2CNC2Cc3ccccc3CN(Cc3cc(F)cc(F)c3F)C2=O)cc1` (centres undefined), the IC50 is 18 nM in assay [2] and 47 nM in assay [4].
The matching figures for `N#Cc1ccc(Cn2cncc2CN[C@H]2CCCCN(Cc3ccccc3)C2=O)cc1`: 8 nM and 10 nM.
The matching figures for `N#Cc1ccc(Cn2cncc2CNC2Cc3ccccc3CN(Cc3ccc(Cl)cc3Cl)C2=O)cc1` (centres undefined): 142 nM and 141 nM.
On the same counts, the results for `N#Cc1ccc(Cn2cncc2CNC2Cc3ccccc3CN(c3cc(Cl)cc(Cl)c3)C2=O)cc1` (centres undefined) are 15 nM and 7 nM.
As for `N#Cc1ccc(Cn2cncc2CNC2C(=O)N(Cc3ccccc3Cl)CCc3ccccc32)cc1` (centres undefined), the half-maximal inhibitory concentration (IC50) in assay [2] turned out to be 23 nM; in assay [4], 92 nM.
In the case of `N#Cc1ccc(Cn2cncc2CNC2C(=O)N(c3ccccc3)CCc3ccccc32)cc1` (centres undefined), the IC50 in assay [2] amounted to 54 nM; in assay [4], 95 nM.
